Values of other authors as cited in PMC9516332 (Frontiers in Oncology, 2022).
Where two headings read alike, the source gives them in different places.

Assays:
Conditions in all cases: cited from earlier work
[1] = molecular target: panel of 255 wild-type kinases (Homo sapiens, UniProt O43683)
[2] = molecular target: panel of 255 wild-type kinases (Homo sapiens, UniProt P08581)
[3] = molecular target: panel of 255 wild-type kinases (Homo sapiens, UniProt P14616)
[4] = molecular target: panel of 255 wild-type kinases (Homo sapiens, UniProt P17252)
[5] = molecular target: panel of 255 wild-type kinases (Homo sapiens, UniProt P49674)
[6] = molecular target: panel of 255 wild-type kinases (Homo sapiens, UniProt P50613)
[7] = molecular target: T1, panel of 255 wild-type kinases (Homo sapiens, UniProt P51813)
T1 sequence (P51813 1-675): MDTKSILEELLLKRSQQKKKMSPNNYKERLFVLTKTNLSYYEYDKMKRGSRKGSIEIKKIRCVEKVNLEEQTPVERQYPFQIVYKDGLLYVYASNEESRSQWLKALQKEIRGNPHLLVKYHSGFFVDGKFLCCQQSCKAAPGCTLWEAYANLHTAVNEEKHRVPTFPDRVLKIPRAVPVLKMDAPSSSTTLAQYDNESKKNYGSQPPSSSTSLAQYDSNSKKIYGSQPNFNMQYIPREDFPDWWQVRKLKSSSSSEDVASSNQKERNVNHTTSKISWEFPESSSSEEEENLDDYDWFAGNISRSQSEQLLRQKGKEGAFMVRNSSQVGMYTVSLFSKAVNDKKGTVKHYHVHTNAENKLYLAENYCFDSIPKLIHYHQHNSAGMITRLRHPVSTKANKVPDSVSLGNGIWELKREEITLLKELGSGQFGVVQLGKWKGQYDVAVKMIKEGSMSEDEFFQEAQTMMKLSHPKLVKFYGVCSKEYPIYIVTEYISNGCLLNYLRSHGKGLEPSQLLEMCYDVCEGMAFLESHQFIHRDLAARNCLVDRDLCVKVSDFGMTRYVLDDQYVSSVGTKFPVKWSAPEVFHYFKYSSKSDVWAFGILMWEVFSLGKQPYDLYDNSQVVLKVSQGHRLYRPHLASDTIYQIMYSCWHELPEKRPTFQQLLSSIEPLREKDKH

[8] = molecular target: panel of 255 wild-type kinases (Homo sapiens, UniProt P53779)
[9] = molecular target: panel of 255 wild-type kinases (Homo sapiens, UniProt Q00535)
[10] = molecular target: panel of 255 wild-type kinases (Homo sapiens, UniProt Q13464)
[11] = molecular target: panel of 255 wild-type kinases (Homo sapiens, UniProt Q13627)
[12] = molecular target: panel of 255 wild-type kinases (Homo sapiens, UniProt Q16288)
[13] = molecular target: panel of 255 wild-type kinases (Homo sapiens, UniProt Q8IY84)
[14] = molecular target: panel of 255 wild-type kinases (Homo sapiens, UniProt Q96GD4)
[15] = molecular target: panel of 255 wild-type kinases (Homo sapiens, UniProt Q96SB4)
[16] = molecular target: panel of 255 wild-type kinases (Homo sapiens, UniProt Q9H1R3)
[17] = molecular target: panel of 255 wild-type kinases (Homo sapiens, UniProt Q9UM73)
[18] = molecular target: panel of 255 wild-type kinases (Homo sapiens, UniProt Q9Y6M4)
[19] = BUB1/BUB3 kinase assay, 1 µmol/L single concentration, ref DOI: 10.1158/1535-7163.MCT-18-0877
[20] = MET, 1 µmol/L single concentration, ref DOI: 10.1158/1535-7163.MCT-18-0877
[21] = kinase IRR, 1 µmol/L single concentration, ref DOI: 10.1158/1535-7163.MCT-18-0877
[22] = kinase PKCα, 1 µmol/L single concentration, ref DOI: 10.1158/1535-7163.MCT-18-0877
[23] = kinase CK1ε, 1 µmol/L single concentration, ref DOI: 10.1158/1535-7163.MCT-18-0877
[24] = CDK7/CycH/MAT1 kinase assay, 1 µmol/L single concentration, ref DOI: 10.1158/1535-7163.MCT-18-0877
[25] = BMX kinase assay, 1 µmol/L single concentration, ref DOI: 10.1158/1535-7163.MCT-18-0877
[26] = kinase JNK3, 1 µmol/L single concentration, ref DOI: 10.1158/1535-7163.MCT-18-0877
[27] = CDK5/p25 kinase assay, 1 µmol/L single concentration, ref DOI: 10.1158/1535-7163.MCT-18-0877
[28] = kinase ROCK1, 1 µmol/L single concentration, ref DOI: 10.1158/1535-7163.MCT-18-0877
[29] = kinase DYRK1A, 1 µmol/L single concentration, ref DOI: 10.1158/1535-7163.MCT-18-0877
[30] = kinase TRKC, 1 µmol/L single concentration, ref DOI: 10.1158/1535-7163.MCT-18-0877
[31] = NIM1K, 1 µmol/L single concentration, ref DOI: 10.1158/1535-7163.MCT-18-0877
[32] = AurB kinase assay, 1 µmol/L single concentration, ref DOI: 10.1158/1535-7163.MCT-18-0877
[33] = kinase SRPK1, 1 µmol/L single concentration, ref DOI: 10.1158/1535-7163.MCT-18-0877
[34] = kinase skMLCK, 1 µmol/L single concentration, ref DOI: 10.1158/1535-7163.MCT-18-0877
[35] = ALK kinase assay, 1 µmol/L single concentration, ref DOI: 10.1158/1535-7163.MCT-18-0877
[36] = kinase CK1γ3, 1 µmol/L single concentration, ref DOI: 10.1158/1535-7163.MCT-18-0877

## O=C(c1ccc(F)c(F)c1Nc1ccc(I)cc1F)N1CC(O)([C@@H]2CCCCN2)C1 [cobimetinib]
[1]; [19]
  %-inhibition BUB1/BUB3: 6.61%
[2]; [20]
  %-inhibition, MET: 7%
[3]; [21]
  %-inhibition at 1 µmol/L, IRR: -0.403%
[4]; [22]
  %-inhibition at 1 µmol/L, PKCα: 1.54%
[5]; [23]
  %-inhibition at 1 µmol/L, CK1ε: 2.44%
[6]; [24]
  %-inhibition CDK7/CycH/MAT1: 6%
[7]; [25]
  %-inhibition BMX: 3.49%
[8]; [26]
  %-inhibition at 1 µmol/L, JNK3: -0.412%
[9]; [27]
  %-inhibition CDK5/p25: -7%
[10]; [28]
  %-inhibition at 1 µmol/L, ROCK1: -2.61%
[11]; [29]
  %-inhibition at 1 µmol/L, DYRK1A: -5%
[12]; [30]
  %-inhibition at 1 µmol/L, TRKC: -1.37%
[13]; [31]
  %-inhibition, NIM1K: -3.67%
[14]; [32]
  %-inhibition AurB: -11%
[15]; [33]
  %-inhibition at 1 µmol/L, SRPK1: -11%
[16]; [34]
  %-inhibition at 1 µmol/L, skMLCK: -10%
[17]; [35]
  %-inhibition ALK: 5%
[18]; [36]
  %-inhibition at 1 µmol/L, CK1γ3: 6%

## Cc1cc(Nc2ncc(Cl)c(Nc3ccccc3S(=O)(=O)C(C)C)n2)c(OC(C)C)cc1C1CCNCC1 [ceritinib]
[1]; [19]
  %-inhibition BUB1/BUB3: 5.67%
[2]; [20]
  %-inhibition, MET: 16%
[3]; [21]
  %-inhibition at 1 µmol/L, IRR: 102%
[4]; [22]
  %-inhibition at 1 µmol/L, PKCα: -9%
[5]; [23]
  %-inhibition at 1 µmol/L, CK1ε: 5%
[6]; [24]
  %-inhibition CDK7/CycH/MAT1: 45%
[7]; [25]
  %-inhibition BMX: -0.557%
[8]; [26]
  %-inhibition at 1 µmol/L, JNK3: 16%
[9]; [27]
  %-inhibition CDK5/p25: -22%
[10]; [28]
  %-inhibition at 1 µmol/L, ROCK1: 31%
[11]; [29]
  %-inhibition at 1 µmol/L, DYRK1A: 1.13%
[12]; [30]
  %-inhibition at 1 µmol/L, TRKC: 9%
[13]; [31]
  %-inhibition, NIM1K: -1.37%
[14]; [32]
  %-inhibition AurB: 8%
[16]; [34]
  %-inhibition at 1 µmol/L, skMLCK: -9%
[17]; [35]
  %-inhibition ALK: 99%
[18]; [36]
  %-inhibition at 1 µmol/L, CK1γ3: 11%

## COc1cc(N2CCC(N3CCN(C)CC3)CC2)ccc1Nc1ncc(Cl)c(Nc2ccccc2P(C)(C)=O)n1 [brigatinib]
[1]
  %-inhibition BUB1/BUB3: 14%
[2]
  %-inhibition, MET: 41%
[3]
  %-inhibition at 1 µmol/L, IRR: 99%
[4]
  %-inhibition at 1 µmol/L, PKCα: 15%
[5]
  %-inhibition at 1 µmol/L, CK1ε: 0.661%
[6]
  %-inhibition CDK7/CycH/MAT1: 55%
[7]
  %-inhibition BMX: 18%
[8]
  %-inhibition at 1 µmol/L, JNK3: 52%
[9]
  %-inhibition CDK5/p25: 40%
[10]
  %-inhibition at 1 µmol/L, ROCK1: 25%
[11]
  %-inhibition at 1 µmol/L, DYRK1A: 38%
[12]
  %-inhibition at 1 µmol/L, TRKC: 53%
[13]
  %-inhibition, NIM1K: 3%
[14]
  %-inhibition AurB: 46%
[15]
  %-inhibition at 1 µmol/L, SRPK1: 4%
[16]
  %-inhibition at 1 µmol/L, skMLCK: -6%
[17]
  %-inhibition ALK: 100%
[18]
  %-inhibition at 1 µmol/L, CK1γ3: 0.829%

## C=CC(=O)Nc1cc(Nc2nccc(-c3cn(C)c4ccccc34)n2)c(OC)cc1N(C)CCN(C)C [osimertinib]
[1]; [19]
  %-inhibition BUB1/BUB3: 11%
[2]; [20]
  %-inhibition, MET: 12%
[3]; [21]
  %-inhibition at 1 µmol/L, IRR: 77%
[4]; [22]
  %-inhibition at 1 µmol/L, PKCα: 11%
[5]; [23]
  %-inhibition at 1 µmol/L, CK1ε: 18%
[6]; [24]
  %-inhibition CDK7/CycH/MAT1: 8.57%
[7]; [25]
  %-inhibition BMX: 57%
[8]; [26]
  %-inhibition at 1 µmol/L, JNK3: 1.89%
[9]; [27]
  %-inhibition CDK5/p25: -0.719%
[10]; [28]
  %-inhibition at 1 µmol/L, ROCK1: -5%
[11]; [29]
  %-inhibition at 1 µmol/L, DYRK1A: 0.712%
[12]; [30]
  %-inhibition at 1 µmol/L, TRKC: -1.61%
[13]; [31]
  %-inhibition, NIM1K: -10%
[14]; [32]
  %-inhibition AurB: -1.24%
[15]; [33]
  %-inhibition at 1 µmol/L, SRPK1: -9%
[16]; [34]
  %-inhibition at 1 µmol/L, skMLCK: -4%
[17]; [35]
  %-inhibition ALK: 99%
[18]; [36]
  %-inhibition at 1 µmol/L, CK1γ3: 13%

## CO[C@@H]1[C@H](N(C)C(=O)c2ccccc2)C[C@H]2O[C@]1(C)n1c3ccccc3c3c4c(c5c6ccccc6n2c5c31)C(=O)NC4 [midostaurin]
[1]; [19]
  %-inhibition BUB1/BUB3: 6.4%
[2]; [20]
  %-inhibition, MET: 45%
[3]; [21]
  %-inhibition at 1 µmol/L, IRR: 26%
[4]; [22]
  %-inhibition at 1 µmol/L, PKCα: 92%
[6]; [24]
  %-inhibition CDK7/CycH/MAT1: 10%
[7]; [25]
  %-inhibition BMX: 81%
[10]; [28]
  %-inhibition at 1 µmol/L, ROCK1: 13%
[13]; [31]
  %-inhibition, NIM1K: 1.15%
[14]; [32]
  %-inhibition AurB: 86%
[15]; [33]
  %-inhibition at 1 µmol/L, SRPK1: 1.28%
[16]; [34]
  %-inhibition at 1 µmol/L, skMLCK: 0.93%
[17]; [35]
  %-inhibition ALK: 87%
[18]; [36]
  %-inhibition at 1 µmol/L, CK1γ3: -1.25%

## C=CC(=O)N1CCC[C@@H](n2nc(-c3ccc(Oc4ccccc4)cc3)c3c(N)ncnc32)C1 [ibrutinib]
[1]; [19]
  %-inhibition BUB1/BUB3: 5%
[2]; [20]
  %-inhibition, MET: 12%
[3]; [21]
  %-inhibition at 1 µmol/L, IRR: 12%
[4]; [22]
  %-inhibition at 1 µmol/L, PKCα: 0.745%
[5]; [23]
  %-inhibition at 1 µmol/L, CK1ε: 50%
[6]; [24]
  %-inhibition CDK7/CycH/MAT1: 5%
[8]; [26]
  %-inhibition at 1 µmol/L, JNK3: 1%
[9]; [27]
  %-inhibition CDK5/p25: -5%
[10]; [28]
  %-inhibition at 1 µmol/L, ROCK1: -5.42%
[11]; [29]
  %-inhibition at 1 µmol/L, DYRK1A: -3.54%
[12]; [30]
  %-inhibition at 1 µmol/L, TRKC: 24%
[13]; [31]
  %-inhibition, NIM1K: -2.33%
[14]; [32]
  %-inhibition AurB: -1.1%
[15]; [33]
  %-inhibition at 1 µmol/L, SRPK1: 1.2%
[16]; [34]
  %-inhibition at 1 µmol/L, skMLCK: -17%
[17]; [35]
  %-inhibition ALK: 5.45%
[18]; [36]
  %-inhibition at 1 µmol/L, CK1γ3: 4%
